Values joined by “and” are separate entries in the source; they are usually repeats but may differ in a detail not shown here. Identical values can stand only once. One block for each compound: values may come before it.
Columns and labels:
[1] = tested on: syncytiotrophoblasts of placental explants; test: Liposome uptake assay in the placenta explants (confocal microscopy); format: cell-based, human; conditions: for liposome binding/uptake, fluorescence signal (replicates): cells not given
[2] = target: T1, R92K Siglec-6-Fc (Homo sapiens, UniProt O43699, R92K); test: Bead assay (Siglec-Fc on streptavidin microbeads, flow cytometry); format: binding
T1 construct: the Siglecs as Fc chimeras; made in house; host or cells: WT CHO cells
Method: (§1) Siglec-Fc constructs designed by Rodrigues et al.[30] were used in this work. Siglec-Fc constructs were expressed using WT CHO cells in cell culture media as described above with 1% HEPES. Cells incubated as described above for one-week post confluency. The supernatant was harvested and stored at 4 °C.
(§2) The purification was heavily inspired by Rodrigues et al.[30]. The purification of the Siglec-Fcs from supernatant began with Ni^2+ affinity chromatography using an AKTA FPLC equipped with a HisTrap Excel column (GE). The column was equilibrated with fifteen column volumes (CVs) of equilibrium buffer (500 mM NaCl, 20 mM NaPO4H2, pH 7.4). The Siglec-Fc containing supernatant was then loaded in its entirety onto the column. The column was then washed with fifteen CVs of wash buffer (500 mM NaCl, 30 mM imidazole, 20 mM NaPO4H2, pH 7.4). The Siglec-Fc was then eluted in 20 in 1 mL fractions with twenty CVs of elution buffer (500 mM NaCl, 500 mM imidazole, 20 mM NaPO4H2, pH 7.4). Fractions containing Siglec-Fc were compiled and then prepared for the next stage of purification by diluting the fractions 1:4 with buffer W (100 mM Tris–HCl, 150 mM NaCl, 1 mM EDTA, pH 8.0). A Strep-Tactin column (IBA life sciences) was washed with fifteen CVs of buffer W. The Siglec-Fc-buffer W solution was then loaded in its entirety onto the column. The bound Siglec-Fc was then washed with fifteen CVs of buffer W. Siglec-Fc was eluted from the column with 15 column volumes of buffer E (100 mM Tris–HCl, 150 mM NaCl, 1 mM EDTA, 10 mM d-Desthiobiotin, pH 8.0). Fractions containing Siglec-Fc were pooled and dialyzed against PBS to remove any d-Desthiobiotin. After dialysis, Siglec-Fcs were concentrated using an ultra-centrifugal device (30 kDa MWCO) and aliquoted into 5 µg aliquots, and frozen. The Siglec-Fcs were then lyophilized overnight, and the lyophilized Siglec-Fcs were stored at −20 °C.
(§3) Pierce^TM Streptavidin Magnetic Beads (Thermo Scientific) were blocked with 2% (m/V) BSA on ice for 1 h. Siglec-Fc in PBS was added then added to the bead solution such that the final concentration was 25 µg/mL. The Siglec-Fc was complexed to the beads for 1 h on ice. Excess Siglec-Fc was removed by washing the beads with 2% BSA solution and 50 µM liposome or 50 µg/mL (protein concentration) EV solution was then added to the beads. The beads were incubated with the liposomes/EVs for 30 min at 37 °C. The beads were then washed with 2% BSA solution and flow cytometry was used to measure the binding between the beads and the liposomes.

[3] = target: T2, WT Siglec-6-Fc (Homo sapiens, UniProt O43699); test: as above; format: binding
T2 construct: the Siglecs as Fc chimeras; made in house; host or cells: WT CHO cells
Method: as §1, §2, §3

[4] = target: T3, Daudi cells transduced with WT Siglec-6 (Homo sapiens, UniProt O43699); test: pHrodo internalization assay by flow cytometry; format: cell-based; conditions: for liposome internalization signal (replicates): sheet Figure S42b
T3 construct: expressed in transfected cells; host or cells: Daudi cells (human B-cell line), lentiviral transduction
Method: Siglec-6 lentivirus was produced as previously reported by Bhattacherjee, A. et al.[72]. Briefly, 1 × 10^6 HEK293T cells were plated in a 6-well dish containing 1.5 mL of DMEM growth medium (Gibco) containing 10% (V/V) fetal bovine serum (FBS; Gibco), 100 U/mL penicillin (Gibco) and 100 µg/mL streptomycin (Gibco). 24 h later, a mixture of 625 ng RP18, 625 ng RP19, 1250 ng hSiglec-6 vector, 7.5 µL TransIT®-LT1 Reagent (Mirus Bio), and Opti-MEM media (Gibco) was added to the HEK293T cells. Cells were incubated with this transfection mixture at 37 °C, 5% CO2 for 72 h. Following transfection, the cell supernatant was harvested and concentrated using Lenti-X concentrator reagent (Takara Bio) following the manufacturer’s instructions.
1.5 × 10^5 Daudi cells were plated in a 24-well plate in 250 µL of RPMI growth medium (Gibco) containing 10% (V/V) fetal bovine serum (FBS; Gibco), 100 U/mL penicillin (Gibco) and 100 µg/mL streptomycin (Gibco). A range of 10X concentrated lentivirus (1, 2, 5, 10 µL) was added to the corresponding wells and incubated for approximately 8 h at 37 °C, 5% CO2 in a tissue culture incubator. After incubation, the media in each well was topped up to 750 µL. Three days post-transduction, 200 µL of cells were plated in a 96-well U-bottom plate and centrifuged at 300 × g for 5 min. The cell pellets were resuspended in 150 µL of flow cytometry buffer (HBSS containing 1% (V/V) FBS, 500 µM EDTA) and the titer of each virus was determined by measuring the mAmentrine+ cells in each well by flow cytometry. The mAmetrine+ cells, ranging from 0.5% to 5%, were re-plated in six-well plates. The mAmetrine+ virally transduced cells were selected for using 300 µg/mL zeocin until the mAmetrine+ population was ≥95%.
Human peripheral blood, taken under an approved institutional ethics protocol, was centrifuged at 1700 × g for 5 min at 4 °C. The upper phase (plasma) was collected and centrifuged at 10,000 × g for 30 min at 4 °C. […]

T3 sequence (O43699 27-453): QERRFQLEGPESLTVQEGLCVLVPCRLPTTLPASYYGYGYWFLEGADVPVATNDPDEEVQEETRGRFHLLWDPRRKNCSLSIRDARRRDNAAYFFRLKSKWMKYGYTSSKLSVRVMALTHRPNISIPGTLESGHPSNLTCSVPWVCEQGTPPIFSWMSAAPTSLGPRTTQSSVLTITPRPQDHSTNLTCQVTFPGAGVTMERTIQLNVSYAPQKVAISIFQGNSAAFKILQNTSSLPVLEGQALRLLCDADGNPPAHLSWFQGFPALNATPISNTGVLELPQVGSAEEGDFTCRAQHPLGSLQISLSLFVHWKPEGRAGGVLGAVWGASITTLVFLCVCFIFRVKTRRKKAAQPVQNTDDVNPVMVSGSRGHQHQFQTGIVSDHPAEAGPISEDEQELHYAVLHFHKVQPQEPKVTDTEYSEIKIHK
T1 sequence (O43699 27-347 R92K limits assumed): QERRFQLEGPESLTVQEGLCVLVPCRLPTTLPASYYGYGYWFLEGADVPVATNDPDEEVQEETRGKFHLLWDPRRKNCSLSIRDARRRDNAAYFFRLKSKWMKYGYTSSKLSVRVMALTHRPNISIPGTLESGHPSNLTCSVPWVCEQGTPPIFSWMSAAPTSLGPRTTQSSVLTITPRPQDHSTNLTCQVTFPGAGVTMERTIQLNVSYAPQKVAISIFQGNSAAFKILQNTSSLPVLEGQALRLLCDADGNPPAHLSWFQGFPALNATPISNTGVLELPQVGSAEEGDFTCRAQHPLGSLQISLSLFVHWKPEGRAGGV
T2 sequence (O43699 27-347 limits assumed): as the sequence (O43699 27-347 R92K limits assumed) above, with K66R counted along it

liposome binding/uptake, fluorescence signal (replicates) ([1]; sheet Figure S31, 5% GM3-DAG liposomes + mAb): 5737 and 5556 and 5976 | liposome binding/uptake, fluorescence signal (replicates) ([1]; sheet Figure S31, 5% GM3-DAG liposomes, no mAb): 20862 and 18720 and 19576 | liposome binding, fluorescence signal (replicates) ([2]; sheet Figure S27, R92K, assay format not given): 264 and 225 and 240 and 223 | liposome binding, fluorescence signal (replicates) ([3]; sheet Figure S27, WT, assay format not given): 13816 and 10279 and 11696 and 11729
Compound: CCCCCCCCCCCCCCCCOCC(COCCCCCCCCCCCCCCCC)OCc1cn(CCO[C@@H]2O[C@H](CO)[C@@H](O[C@@H]3O[C@H](CO)[C@H](O)[C@H](O[C@]4(C(=O)O)C[C@H](O)[C@@H](NC(C)=O)[C@H]([C@H](O)[C@H](O)CO)O4)[C@H]3O)[C@H](O)[C@H]2O)nn1 [GM3-DAG]

pHrodo signal of 5 nGLLs in Siglec-6 Daudi cells ([4]; independent of Arg122, only at 37 °C): time-dependent increase in pHrodo signal | binding of 5 nGLLs to R92K Siglec-6 Fc compared to WT Siglec-6 ([2]; bead assay): less than 5% | blocking of EV binding to Siglec-6 with 5 mol% 5 nGLLs ([3]; bead assay): competed away binding of EVs
Compound: CCCCCCCCCCCCCCCCOCC(COCCCCCCCCCCCCCCCC)OCc1cn(CCO[C@@H]2O[C@H](CO)[C@@H](O[C@@H]3O[C@H](CO)[C@H](O)[C@H](O[C@]4(C(=O)O)C[C@H](O)[C@@H](NC(C)=O)[C@H]([C@H](O)[C@H](O)CO)O4)[C@H]3O)[C@H](O)[C@H]2O)nn1 [nGL 5]
puncta of 5 nGLLs on syncytiotrophoblasts compared to naked liposomes ([1]; live human placental explants, 50 μM liposome, 2 h): significantly more puncta | 5 nGLL interaction with syncytiotrophoblasts after pre-treatment with anti-Siglec-6 antibody ([1]; placental explants): blocked these interactions | colocalization of 5 nGLLs with Siglec-6 compared to naked liposomes ([1]; placental explants): strong colocalization

Compound: GM3
liposome internalization signal (replicates) ([4]; WT-4): 16.4 and 15.8 and 17.6 and 19.4 | liposome internalization signal (replicates) ([4]; WT-37): 30.6 and 27.6 and 33.7 and 27.8
